Assay [1] addresses Safetyscreen44 off target panel (Homo sapiens, UniProt P35372).
For assay [2], the target named is Safetyscreen44 off target panel (Homo sapiens, UniProt P46098).
The target in assay [3] is Safetyscreen44 off target panel (Homo sapiens, UniProt Q01959).
Safetyscreen44 off target panel (Homo sapiens, UniProt Q01959), sequence (Q01959 whole entry): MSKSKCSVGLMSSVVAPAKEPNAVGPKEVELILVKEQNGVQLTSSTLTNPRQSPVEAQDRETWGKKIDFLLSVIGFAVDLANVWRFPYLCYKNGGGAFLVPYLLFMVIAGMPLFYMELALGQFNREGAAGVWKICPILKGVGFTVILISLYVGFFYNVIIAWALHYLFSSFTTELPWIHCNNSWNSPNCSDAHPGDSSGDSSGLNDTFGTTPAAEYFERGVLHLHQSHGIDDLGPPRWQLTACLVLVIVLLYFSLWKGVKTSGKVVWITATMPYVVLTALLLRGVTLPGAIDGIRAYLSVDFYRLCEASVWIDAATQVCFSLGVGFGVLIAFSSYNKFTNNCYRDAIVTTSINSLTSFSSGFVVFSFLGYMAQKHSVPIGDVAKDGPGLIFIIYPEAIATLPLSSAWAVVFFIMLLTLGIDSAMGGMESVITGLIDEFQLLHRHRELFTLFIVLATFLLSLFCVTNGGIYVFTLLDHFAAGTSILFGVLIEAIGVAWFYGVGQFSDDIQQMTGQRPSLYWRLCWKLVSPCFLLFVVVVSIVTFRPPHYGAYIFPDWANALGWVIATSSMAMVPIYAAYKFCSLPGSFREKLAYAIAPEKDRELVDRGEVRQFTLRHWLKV

Safetyscreen44 off target panel (Homo sapiens, UniProt P35372), sequence (P35372 whole entry): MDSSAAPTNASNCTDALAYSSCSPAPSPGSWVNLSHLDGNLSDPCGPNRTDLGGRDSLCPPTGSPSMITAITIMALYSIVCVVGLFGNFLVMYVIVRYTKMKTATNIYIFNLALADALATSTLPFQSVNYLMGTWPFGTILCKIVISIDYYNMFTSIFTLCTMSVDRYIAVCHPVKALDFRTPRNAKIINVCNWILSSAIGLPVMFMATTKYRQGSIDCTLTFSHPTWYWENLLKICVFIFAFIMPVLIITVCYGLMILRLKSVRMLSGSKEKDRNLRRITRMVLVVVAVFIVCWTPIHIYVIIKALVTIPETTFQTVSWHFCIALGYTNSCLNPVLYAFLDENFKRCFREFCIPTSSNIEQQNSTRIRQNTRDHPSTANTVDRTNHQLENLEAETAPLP
Safetyscreen44 off target panel (Homo sapiens, UniProt P46098), sequence (P46098 24-478): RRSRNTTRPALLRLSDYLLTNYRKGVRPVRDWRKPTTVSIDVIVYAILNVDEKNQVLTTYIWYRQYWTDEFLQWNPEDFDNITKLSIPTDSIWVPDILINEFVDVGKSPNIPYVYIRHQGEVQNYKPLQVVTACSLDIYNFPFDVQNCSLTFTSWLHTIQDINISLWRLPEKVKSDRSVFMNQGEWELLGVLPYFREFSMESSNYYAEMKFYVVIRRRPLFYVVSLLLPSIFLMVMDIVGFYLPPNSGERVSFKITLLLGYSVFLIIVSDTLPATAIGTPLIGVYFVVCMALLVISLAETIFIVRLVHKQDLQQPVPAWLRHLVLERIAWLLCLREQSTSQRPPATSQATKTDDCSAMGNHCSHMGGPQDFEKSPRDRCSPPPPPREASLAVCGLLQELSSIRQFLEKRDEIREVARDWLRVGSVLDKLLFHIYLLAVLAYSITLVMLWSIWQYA

Turning to `C[C@H]1COc2c(N3CC[C@@H](Nc4ncccn4)C3)c(F)cc3c(=O)c(C(=O)O)cn1c23` [KSN-82-L22], the “% inhibition, mu (MOP) (h) (agonist radioligand)” value in assay [1] came out at 6.535%. In addition, the “% inhibition, 5-HT3 (h) (antagonist radioligand)” value in assay [2] was −4.708%. Moreover, the “% inhibition, dopamine transporter (h) (antagonist radioligand)” value in assay [3] was found to be 10.0257%.
